Assay results published in article PMC7248897, “Synthesis, Biological Evaluation and In Silico Studies of Certain Oxindole–Indole Conjugates as Anticancer CDK Inhibitors” (Molecules, 2020).

Assays:
p53 = assay: ELISA of p53 level in MCF-7 cells; format: cell-based, human; conditions: for fold increase of p53 level: MCF-7, as compared to the control; for p53: MCF-7 cells treated at IC50, 48 h, control 41.26 ± 2.7
Protocol: In addition, their influence on the level of caspase-3 and p53 was estimated in the MCF-7 cell line.
Assessment of the levels for the proapoptotic markers (Bax, caspase-3, and p53) as well as the antiapoptotic marker (Bcl-2) was carried out through the use of ELISA colorimetric kits in accordance with the manufacturer’s instructions, as mentioned earlier. In addition, the pro-apoptotic potential of indoles 6e and 6f towards MCF-7 cells was evaluated through an FITC Annexin V apoptosis detection kit by flow cytometry, in accordance with the manufacturer’s protocol and referring to the reported procedures.
The levels of the pro-apoptotic markers (Bax, caspase-3 and p53) as well as the anti-apoptotic marker Bcl-2 were determined using ELISA colorimetric kits per the manufacturer’s instructions. Breast cancer MCF-7 cells were cultured as a monolayer in T-25 flasks and were seeded to attain 30% confluency prior to treatment. Cells were then […]
of treatment, cells were collected via trypsinization and centrifuged at 10,000 rpm. The pellet was then rinsed with PBS and lysed in RIPA lysis buffer at 4 °C for 45 min, then centrifuged at 14,000 rpm for 20 min to remove the cellular debris. Lysates were then collected and stored at −80 °C for later protein determination using Pierce BCA Protein Assay Kit according to manufacturer’s recommendations.
The cell lysate was diluted 10 times, and 100 μL ([…]) was added to the wells of four separate microtiter plates for the four ELISA kits that were pre-coated with primary antibodies specific to Bax, Bcl-2, caspase-3 and p53 proteins, respectively. A secondary biotin-linked antibody specific to the protein captured by the primary antibody was further added to bind the captured protein, forming a “sandwich” of specific antibodies around the desired protein in the cell lysate. The streptavidin-HRP complex was then used to bind the biotin-linked secondary antibody through its streptavidin portion. The HRP domain reacted with the added TMB substrate to form a colored product that measured at 450 nm by a plate reader ChroMate-4300 after the reaction was terminated via the addition of stop solution. […]
Cells were then rinsed in binding buffer and resuspended in 150
μL of binding buffer with the addition of 1 μL of DAPI (1 μg/μL in PBS). […]

CDK9 = CDK9 (Homo sapiens, UniProt P50750); assay: CDK9 kinase inhibition (Reaction Biology HotSpot); conditions: read-out: % Enzyme Inhibitory Activity CDK9
Protocol: The in vitro CDK kinase inhibition assay was performed by Reaction Biology Corp. (PA, USA) (http://www.reactionbiology.com) Kinase HotSpotSM service.
Reaction Biology Corp. Kinase HotSpotSM service (http://www.reactionbiology.com)
was used for screening of tested compounds. CDK Kinase inhibitory activities were
assessed by the HotSpot assay platform, which contained specific kinase/substrate pairs
along with required cofactors. Base reaction buffer: 20 mM Hepes (pH 7.5), 10 mM MgCl2,
Testing compounds were dissolved in 100% DMSO to specific concentration. The serial
dilution was conducted by Integra Viaflo Assist in DMSO. The reaction mixture containing the examined compound and 33P-ATP was incubated at room temperature for
2 h and radioactivity was detected by filter-binding method. Kinase activity data were
expressed as the percent remaining kinase activity in test samples compared to vehicle
(dimethyl sulfoxide) reactions.

MCF-7 cells = assay: Cell cycle analysis by flow cytometry (PI); format: cell-based, human; conditions: for fold elevation in sub-G1 phase / fold increase of cells in G2/M phase: MCF-7, in comparison to the control (DMSO); for %Sub-G1 / %G2/M / %S / %G0–G1: MCF-7 cells treated at IC50, 24 h; for %Sub-G1: control 1.37; for %G2/M: control 14.73; for %S: control 27.45; for %G0–G1: control 56.45
Protocol: Most of the cytotoxic agents wield their anti-proliferative effect by arresting the cell cycle at some checkpoints. Cell cycle analysis employs flow cytometry to distinguish cells within the different cell cycle phases. […] MCF-7 cells were treated by the IC50 of the two conjugates and their impact on the cell population was recorded. […] This was accompanied by discernible escalation in the proportion of cells in the G2/M phase by 2.80- and 2.46-fold with concomitant elevation in the sub-G1 phase by 17.8 and 16.25-fold, respectively, in comparison to the control (DMSO). […]
The two examined human breast cancer cell lines (MCF-7 and Breast MDA-MB-231) have been obtained from American Type Culture Collection (ATCC). The cells were maintained in Dulbecco's modified Eagle's medium (DMEM) supplemented with 10% heat inactivated fetal calf serum (GIBCO), penicillin (100 U/ml) and streptomycin (100 µg/ml) at 37 °C in humidified atmosphere containing 5% CO2. Cells at a concentration of 0.50 x 106 were grown in a 25 cm2 flask in 5 ml of culture medium. […]
Breast cancer MCF-7 cells were treated with hybrids 6e and 6f for 24 h (at their IC50 concentration), and then cells were washed twice with ice-cold phosphate buffered saline (PBS). Subsequently, the treated cells were collected by centrifugation, fixed in ice-cold 70% (v/v) ethanol, washed with PBS, re-suspended with 100 μg/mL RNase, stained with 40 μg/mL PI, and analyzed by flow cytometry using FACS Calibur (Becton Dickinson, BD, Franklin Lakes, NJ, USA). The cell cycle distributions were calculated using CellQuest software 5.1 (Becton Dickinson).

CDK9, sequence (P50750 whole entry): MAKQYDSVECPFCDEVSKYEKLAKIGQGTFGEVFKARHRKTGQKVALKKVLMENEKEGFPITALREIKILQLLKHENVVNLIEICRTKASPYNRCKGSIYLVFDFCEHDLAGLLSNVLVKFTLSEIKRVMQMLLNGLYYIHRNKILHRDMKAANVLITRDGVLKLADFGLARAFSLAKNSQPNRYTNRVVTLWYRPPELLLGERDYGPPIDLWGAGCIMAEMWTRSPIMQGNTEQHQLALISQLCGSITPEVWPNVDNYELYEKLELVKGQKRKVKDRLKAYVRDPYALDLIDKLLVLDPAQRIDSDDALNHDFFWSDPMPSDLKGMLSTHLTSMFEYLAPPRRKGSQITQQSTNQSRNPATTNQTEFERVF
CDK9, sequence (O60563 whole entry partner): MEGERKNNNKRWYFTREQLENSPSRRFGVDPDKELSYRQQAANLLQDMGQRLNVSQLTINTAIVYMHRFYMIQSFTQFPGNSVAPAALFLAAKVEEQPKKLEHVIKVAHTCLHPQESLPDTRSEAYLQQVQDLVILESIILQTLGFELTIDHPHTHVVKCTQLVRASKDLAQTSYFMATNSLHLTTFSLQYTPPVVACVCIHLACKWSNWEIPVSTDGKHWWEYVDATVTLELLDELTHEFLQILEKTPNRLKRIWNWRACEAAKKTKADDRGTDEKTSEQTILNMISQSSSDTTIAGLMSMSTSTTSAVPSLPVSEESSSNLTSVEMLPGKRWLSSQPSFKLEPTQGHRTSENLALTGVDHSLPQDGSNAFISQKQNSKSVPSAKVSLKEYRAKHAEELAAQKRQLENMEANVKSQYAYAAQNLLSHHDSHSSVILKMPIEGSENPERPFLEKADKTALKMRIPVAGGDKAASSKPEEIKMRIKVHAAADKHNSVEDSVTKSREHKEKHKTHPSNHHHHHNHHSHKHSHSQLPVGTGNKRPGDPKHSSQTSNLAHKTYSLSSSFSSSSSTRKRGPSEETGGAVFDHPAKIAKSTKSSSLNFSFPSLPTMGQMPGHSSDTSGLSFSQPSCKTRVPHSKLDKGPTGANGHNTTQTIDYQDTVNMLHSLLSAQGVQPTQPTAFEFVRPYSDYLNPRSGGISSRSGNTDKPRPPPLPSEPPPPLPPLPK

Structure (SMILES) | fold increase of p53 level (p53) | p53 (p53) | inhibition at 20 µM (CDK9) | fold elevation in sub-G1 phase (MCF-7 cells) | fold increase of cells in G2/M phase (MCF-7 cells) | %Sub-G1 (MCF-7 cells) | %G2/M (MCF-7 cells) | %S (MCF-7 cells) | %G0–G1 (MCF-7 cells)
COc1ccc2c(c1)/C(=N/NC(=O)c1cc3ccccc3[nH]1)C(=O)N2 [6f] | 13.3 fold | 547.60 ± 29.5 pg/mg | 8% | 16.25 fold | 2.46 fold | 22.26% | 36.26% | 19.29% | 22.19%
Cc1ccc2c(c1)/C(=N/NC(=O)c1cc3ccccc3[nH]1)C(=O)N2 [6e] | 17 fold | 704.39 ± 32.8 pg/mg | 18% | 17.8 fold | 2.80 fold | 24.49% | 41.47% | 14.81% | 19.23%
